From US6620793B2, “Therapeutic use of ganglioside GM1 in the treatment of spinal cord injury” (Fidia Farmaceutici S.p.A., priority 1991, dated 2003)
Where “and” joins values, the source holds several entries; their conditions need not be identical. Identical values can stand only once.

Legend:
[1] = test system: patients with spinal cord injury; test: Randomized placebo-controlled double-blind spinal cord injury GM1 trial: Frankel grade; type: in vivo, humans
Description: The first clinical scale used, that is the Frankel classification system, is extremely important because it provides a very relevant clinical index of neurological improvement of the patients.
More precisely, the Frankel classification system separates neurologic disability into five ordinal grades, according to the type and completeness of neurologic function remaining below the level of the spinal-cord injury, as follows: grad A, complete neurclogic injury; grade B, only sensation preserved; grade C, nonfunctional motor ability preserved; grade D, functional motor ability preserved; and grade E, normal motor function. The letters designating each grade were used by Frankel in his original description of this scale.

[2] = Solubility of purified GM1 sodium salt; type: physicochemical
Description: The compound obtained after this purification has the following chemical characteristics and specifications:
Soluble in water, methanol-water and methanol-chloroform.

[3] = test system: patients with spinal cord injury; test: Randomized placebo-controlled double-blind spinal cord injury GM1 trial: ASIA motor score
Description: This study was designed as a pilot study to test whether the neurologic recovery in humans after a spinal-cord injury could be altered by adding monosialbtetrahexosylganglioside (GM1) ganglioside beyond the routine medical and surgical care with which these trauma patients are initially treated.
A prospective, randomized, placebo-controlled, double-blinded spinal cord injury GM1 ganglioside drug trial was completed. Of the 37 patients, 34 patients (23 cervical and 11 thoracic injuries) who were randomly assigned to a treatment group and who followed the test drug protocol and completed the one year follow-up period, 16 patients were included in the GM1 group and 18 were in the placebo group.
The first dose of study drug was administered within 72 hours of the injury and then 17 to 29 additional 5 ml daily injections of 100 mg GM1 or placebo were given. The treatment (100 mg of GM1 sodium salt or placebo) was administered duly by the intravenous route for a total of 18-32 doses, with the first dose taken within 72 hours of the injury.
The complete composition of the GM1 ganglioside used in the study (Sygen, Fidia, Abano Terme, Italy) is 100 mg of GM1 sodium salt, 12.7 mM; 1.25 mg of sodium dihydrogen phosphate dihydrate, 1.6 mM; 15.0 mg of disodium hydrogen phosphate dodecahydrate, 8.4 mM; 40.0 mg of sodium chloride, 137.9 nM; and a quantity of water sufficient to yield an isotonic solution with a total volume of 5 ml for injection. The placebo vials were identical in appearance and composition, except that the GM1 was absent. Most of the test drug was administered by injection through an intravenous heparin lock. Some of the first few injections were given by an intravenous catheter, and occasionally, when the heparin lock was nonfunctional, a single direct-puncture intravenous injection was used.
The severity of spinal-cord injury and its subsequent recovery were quantified by serial measurement with both the Frankel scale and the American Spinal Injury Association (ASIA) motor score. Each measurement was made at the time of the first contact in the emergency room, at entry into the study, then twice per week for the first 4 weeks and after 2, 3, 6 and 12 months.
The second clinical scale used, that is the ASIA motor score, provides a quantifiable index of nerve-muscle functionality. More exactly, this scale has a range of 0 (complete quadriplegia) to 100 (normal motor function). Five key muscles in each extremity (the biceps, wrist extensors, triceps, flexor profundus, and hand intrinsics in the upper extremity, and the iliopsoas, quadriceps, tibialis anterior, extensor hallucis longus, and gastrocnemius in the lower extremity) are assessed on a scale for strength from 0 to 5 points in which 0 (absent) denotes total paralysis, 1 (trace) palpable or visible penetration, 2(poor) active movement through a range of motion in which gravity is not involved, 3 (fair) active movement through a range of motion against gravity, 4 (good) active movement through a range of motion against resistance, and 5 normal. The ASIA motor score is the sum of the scores for muscle strength in these 20 motor groups.
Furthermore, to better analyze the GM1 effect on muscular functionality, the 20 individual muscle groups in each patient were subdivided into three categories at entry: those initially paralyzed (a motor score of 0), those initially paretic (a motor score of 1 through 4), and those functioning normally (a motor score of 5).

## CCCCCCCCCCCCCC=CC(O)C(COC1OC(CO)C(OC2OC(CO)C(OC3OC(CO)C(O)C(OC4OC(CO)C(O)C(O)C4O)C3NC(C)=O)C(OC3(C(=O)[O-])CC(O)C(NC(C)=O)C(C(O)C(O)CO)O3)C2O)C(O)C1O)NC(=O)CCCCCCCCCCCCCCCCC.[Na+] (stereo not drawn) [GM1, Monosialotetrahexosylganglioside, sodium salt]
[1]; after one year, 100 mg GM1 i.v. daily, 18-32 doses, 8 of 34 patients improved overall
  Patients improved by two or more Frankel grades who were in the GM1 group: seven of eight
[1]; entry to one year, P=0.034 Cochran-Mantel-Haenszel chi-square test
  Improvement with respect to Frankel grade versus placebo: improved more than the placebo-treated patients
[1]; one year, placebo 1 of 14, P=0.033 Fisher's exact test, two-tailed
  Patients improved by two or more Frankel grades among those who had room to improve (number): 7 of 14
[1]; one year, placebo 7.1 percent, P=0.033 Fisher's exact test
  Patients improved by two or more Frankel grades among those who had room to improve (percent): 50%
[2]; in methanol, acetone, chloroform, ether and hexane
  Solubility: Virtually insoluble
[2]; in water, methanol-water and methanol-chloroform
  Solubility: Soluble
[3]; GM1 versus placebo, one year, mean ± SD, n=34, sodium salt
  Difference in improvement in ASIA motor score between groups, unadjusted: 15.3 and 15.3 ± 25.6
[3]; all patients, entry to one-year follow-up, mean ± SD, n=16
  Improvement in mean ASIA motor score: 36.9 ± 28.2
[3]; all patients, one-year follow-up, mean ± SD, n=16
  Mean ASIA motor score at follow-up: 62.8 ± 26.8
[3]; all patients, study entry (baseline), mean ± SD, n=16, sodium salt
  Mean ASIA motor score at entry: 25.9 and 25.9 ± 21.8
[3]; entry to one-year follow-up
  Patients with a greater degree of ASIA motor recovery than any patient assigned to placebo: three
[3]; entry to one-year follow-up, placebo 7 of 18
  Patients with motor recoveries of more than 20 points in ASIA motor score (number): 11 of 16
[3]; entry to one-year follow-up, placebo 38.9 percent
  Patients with motor recoveries of more than 20 points in ASIA motor score (percent): 68.8%
[3]; entry to one-year follow-up, placebo six patients
  Patients with no recovery in ASIA motor score: one
[3]; entry to score after one year, 95 percent CI 21.9 to 51.9
  Mean motor recovery in ASIA motor score: 36.9 points
[3]; motor score 0 at entry to 3 to 5 after one year, placebo 25.3 percent
  Muscle groups paralyzed at entry that regained useful-to-normal motor function (percent): 51.7%
[3]; motor score 0 at entry to 3 to 5 after one year, placebo 49 of 194
  Muscle groups paralyzed at entry that regained useful-to-normal motor function (number): 107 of 207
[3]; motor score 0 at entry, after one year, placebo 65.5 percent
  Muscle groups paralyzed at entry that remained paralyzed (percent): 30.9%
[3]; motor score 0 at entry, after one year, placebo 127 of 194
  Muscle groups paralyzed at entry that remained paralyzed (number): 64 of 207
[3]; one-year follow-up, post hoc, placebo 8 of 18, P=0.039 Fisher's exact test
  Patients with at least one muscle group paralyzed at entry that improved to a motor score of 3 or more (number): 13 of 16
[3]; one-year follow-up, post hoc, placebo 44.4 percent, P=0.039 Fisher's exact test
  Patients with at least one muscle group paralyzed at entry that improved to a motor score of 3 or more (percent): 81.3%
